Measured values published in patent US12233081B2, “Hygromycin a compounds and methods of treating spirochete diseases” (priority 2018, dated 2025).
Like-named read-outs stand apart in the source and are kept apart here.

Key:
gut microbiome [1] = assay: gut microbiome 16S rRNA sequencing of stool of infected, treated mice; conditions: for Enterococcaceae change in percent relative abundance: 100 mg/kg
gut microbiome [2] = conditions: mouse, in vivo, 100 mg/kg
[3] = IP 100 mg/kg every 12 hours for 5 days
[4] = oral 100 mg/kg every 12 hours for 5 days

CC1(C)S[C@@H]2[C@H](NC(=O)[C@H](N)c3ccc(O)cc3)C(=O)N2[C@H]1C(=O)O [Amox, amoxicillin]
Brucellaceae change in percent relative abundance (gut microbiome [1]; [3]): 0.000% | Francisellaceae change in percent relative abundance (gut microbiome [1]; [3]): 0.001% | Aerococcaceae change in percent relative abundance (gut microbiome [1]; [4]): 0.000% | Anaerolineaceae change in percent relative abundance (gut microbiome [1]; [4]): 0.000% | Anaeroplasmataceae change in percent relative abundance (gut microbiome [1]; [4]): −0.048% | Anaplasmataceae change in percent relative abundance (gut microbiome [1]; [4]): 0.000% | Aspergillaceae change in percent relative abundance (gut microbiome [1]; [4]): 0.000% | Asteraceae change in percent relative abundance (gut microbiome [1]; [4]): 0.003% | Bacillaceae change in percent relative abundance (gut microbiome [1]; [4]): 0.002% | Bacillales change in percent relative abundance (gut microbiome [1]; [4]): −0.100% | Bacteroidaceae change in percent relative abundance (gut microbiome [1]; [4]): −8.426% | Bifidobacteriaceae change in percent relative abundance (gut microbiome [1]; [4]): −0.124% | Brucellaceae change in percent relative abundance (gut microbiome [1]; [4]): 0.001% | Camobacteriaceae change in percent relative abundance (gut microbiome [1]; [4]): −0.002% | Chitinophagaceae change in percent relative abundance (gut microbiome [1]; [4]): 0.000% | Christensenellaceae change in percent relative abundance (gut microbiome [1]; [4]): 0.000% | Clostridiaceae change in percent relative abundance (gut microbiome [1]; [4]): −6.891% | Clostridiales change in percent relative abundance (gut microbiome [1]; [4]): −0.099% | Clostridiales family xi. incertae sedis change in percent relative abundance (gut microbiome [1]; [4]): −0.027% | Clostridiales family xiii. incertae sedis change in percent relative abundance (gut microbiome [1]; [4]): −0.011% | Coriobacteriaceae change in percent relative abundance (gut microbiome [1]; [4]): −0.019% | Corynebacteriaceae change in percent relative abundance (gut microbiome [1]; [4]): 0.000% | Cytophagaceae change in percent relative abundance (gut microbiome [1]; [4]): −0.001% | Deferribacteraceae change in percent relative abundance (gut microbiome [1]; [4]): −0.085% | Defluviitaleaceae change in percent relative abundance (gut microbiome [1]; [4]): −0.001% | Desulfobacteraceae change in percent relative abundance (gut microbiome [1]; [4]): 0.000% | Enterobacteriaceae change in percent relative abundance (gut microbiome [1]; [4]): −1.496% | Erysipelotrichaceae change in percent relative abundance (gut microbiome [1]; [4]): −2.932% | Eubacteriaceae change in percent relative abundance (gut microbiome [1]; [4]): 4.510% | Fabaceae change in percent relative abundance (gut microbiome [1]; [4]): 0.001% | Flavobacteriaceae change in percent relative abundance (gut microbiome [1]; [4]): 0.000% | Francisellaceae change in percent relative abundance (gut microbiome [1]; [4]): −0.001% | Fusobacteriaceae change in percent relative abundance (gut microbiome [1]; [4]): 0.000% | Gammaproteobacteria change in percent relative abundance (gut microbiome [1]; [4]): −0.027% | Gloeobacteraceae change in percent relative abundance (gut microbiome [1]; [4]): −0.013% | Gracilibacteraceae change in percent relative abundance (gut microbiome [1]; [4]): −0.105% | Halomonadaceae change in percent relative abundance (gut microbiome [1]; [4]): 0.001% | Hylidae change in percent relative abundance (gut microbiome [1]; [4]): 0.002% | Kopriimonadaceae change in percent relative abundance (gut microbiome [1]; [4]): 0.000% | Lachnospiraceae change in percent relative abundance (gut microbiome [1]; [4]): −5.482% | Lactobacillaceae change in percent relative abundance (gut microbiome [1]; [4]): −15.023% | Leuconostocaceae change in percent relative abundance (gut microbiome [1]; [4]): 0.002% | Methylobacteriaceae change in percent relative abundance (gut microbiome [1]; [4]): 0.000% | Microbacteriaceae change in percent relative abundance (gut microbiome [1]; [4]): 0.000% | Mucoraceae change in percent relative abundance (gut microbiome [1]; [4]): 0.002% | Nostocaceae change in percent relative abundance (gut microbiome [1]; [4]): 0.001% | Onagraceae change in percent relative abundance (gut microbiome [1]; [4]): 0.000% | Oscillatoriales change in percent relative abundance (gut microbiome [1]; [4]): 0.069% | Oscillospiraceae change in percent relative abundance (gut microbiome [1]; [4]): −0.005% | Paenibacillaceae change in percent relative abundance (gut microbiome [1]; [4]): −0.001% | Pasteurellaceae change in percent relative abundance (gut microbiome [1]; [4]): 0.000% | Pelobacteraceae change in percent relative abundance (gut microbiome [1]; [4]): 0.000% | Peptococcaceae change in percent relative abundance (gut microbiome [1]; [4]): −0.948% | Peptoniphilaceae change in percent relative abundance (gut microbiome [1]; [4]): 0.000% | Peptostreptococcaceae change in percent relative abundance (gut microbiome [1]; [4]): −0.187% | Physalacriaceae change in percent relative abundance (gut microbiome [1]; [4]): 0.000% | Poaceae change in percent relative abundance (gut microbiome [1]; [4]): 0.107% | Polyangiaceae change in percent relative abundance (gut microbiome [1]; [4]): 0.000% | Porphyromonadaceae change in percent relative abundance (gut microbiome [1]; [4]): −19.192% | Prevotellaceae change in percent relative abundance (gut microbiome [1]; [4]): −0.240% | Pseudomonadaceae change in percent relative abundance (gut microbiome [1]; [4]): 0.000% | Rhizobiaceae change in percent relative abundance (gut microbiome [1]; [4]): 0.001% | Rhodobacteraceae change in percent relative abundance (gut microbiome [1]; [4]): 0.000% | Rikenellaceae change in percent relative abundance (gut microbiome [1]; [4]): −6.166% | Ruminococcaceae change in percent relative abundance (gut microbiome [1]; [4]): −1.440% | Sphingomonadaceae change in percent relative abundance (gut microbiome [1]; [4]): 0.000% | Spirochaetaceae change in percent relative abundance (gut microbiome [1]; [4]): −0.056% | Spiroplasmataceae change in percent relative abundance (gut microbiome [1]; [4]): −0.004% | Staphylococcaceae change in percent relative abundance (gut microbiome [1]; [4]): 0.000% | Streptococcaceae change in percent relative abundance (gut microbiome [1]; [4]): −2.376% | Thermoanaerobacteraceae change in percent relative abundance (gut microbiome [1]; [4]): −0.028% | Veillonellaceae change in percent relative abundance (gut microbiome [1]; [4]): 0.001% | Verrucomicrobiaceae change in percent relative abundance (gut microbiome [1]; [4]): −0.009% | Xanthomonadaceae change in percent relative abundance (gut microbiome [1]; [4]): 0.002% | all other commensal taxa such as Bacteroidaceae and Lactobacillaceae (gut microbiome [1]; [4]): depleted | mice with Enterococcaceae blooms (gut microbiome [1]; [4]): 4/5 | Enterococcaceae change in percent relative abundance (gut microbiome [1]; [4]): 75.807% | Enterococcaceae change in percent relative abundance (gut microbiome [1]; oral 100 mg/kg every 12 hours for 5 days, listed as amoxicillin): 75.8% | Camobacteriaceae change in percent relative abundance (gut microbiome [2]; C3H, ip, 5 days): 0.000% | Chitinophagaceae change in percent relative abundance (gut microbiome [2]; C3H, ip, 5 days): 0.000% | Christensenellaceae change in percent relative abundance (gut microbiome [2]; C3H, ip, 5 days): 0.000% | Clostridiaceae change in percent relative abundance (gut microbiome [2]; C3H, ip, 5 days): 0.211% | Clostridiales change in percent relative abundance (gut microbiome [2]; C3H, ip, 5 days): −0.037% | Clostridiales family xi. incertae sedis change in percent relative abundance (gut microbiome [2]; C3H, ip, 5 days): −0.010% | Clostridiales family xiii. incertae sedis change in percent relative abundance (gut microbiome [2]; C3H, ip, 5 days): −0.007% | Coriobacteriaceae change in percent relative abundance (gut microbiome [2]; C3H, ip, 5 days): 0.099% | Acholeplasmataceae change in percent relative abundance (gut microbiome [2]; ip): 0.005% | Aerococcaceae change in percent relative abundance (gut microbiome [2]; ip): 0.000% | Anaerolineaceae change in percent relative abundance (gut microbiome [2]; ip): 0.000% | Anaeroplasmataceae change in percent relative abundance (gut microbiome [2]; ip): −0.132% | Anaplasmataceae change in percent relative abundance (gut microbiome [2]; ip): 0.000% | Aspergillaceae change in percent relative abundance (gut microbiome [2]; ip): 0.000% | Asteraceae change in percent relative abundance (gut microbiome [2]; ip): 0.000% | Bacillaceae change in percent relative abundance (gut microbiome [2]; ip): −0.011% | Bacillales change in percent relative abundance (gut microbiome [2]; ip): −0.031% | Bacteroidaceae change in percent relative abundance (gut microbiome [2]; ip): 0.684% | Bifidobacteriaceae change in percent relative abundance (gut microbiome [2]; ip): 0.000% | Candidatus saccharibacteria change in percent relative abundance (gut microbiome [2]; ip): −0.018% | Corynebacteriaceae change in percent relative abundance (gut microbiome [2]; ip): 0.000% | Cytophagaceae change in percent relative abundance (gut microbiome [2]; ip): 0.001% | Deferribacteraceae change in percent relative abundance (gut microbiome [2]; ip): 0.080% | Defluviitaleaceae change in percent relative abundance (gut microbiome [2]; ip): 0.000% | Desulfobacteraceae change in percent relative abundance (gut microbiome [2]; ip): 0.000% | Enterobacteriaceae change in percent relative abundance (gut microbiome [2]; ip): −0.243% | Enterococcaceae change in percent relative abundance (gut microbiome [2]; ip): 0.052% | Erysipelotrichaceae change in percent relative abundance (gut microbiome [2]; ip): −0.193% | Eubacteriaceae change in percent relative abundance (gut microbiome [2]; ip): −1.475% | Fabaceae change in percent relative abundance (gut microbiome [2]; ip): 0.000% | Flavobacteriaceae change in percent relative abundance (gut microbiome [2]; ip): 0.000% | Fusobacteriaceae change in percent relative abundance (gut microbiome [2]; ip): 0.000% | Gammaproteobacteria change in percent relative abundance (gut microbiome [2]; ip): 0.003% | Gloeobacteraceae change in percent relative abundance (gut microbiome [2]; ip): 0.055% | Gracilibacteraceae change in percent relative abundance (gut microbiome [2]; ip): −0.026% | Halomonadaceae change in percent relative abundance (gut microbiome [2]; ip): 0.000% | Hylidae change in percent relative abundance (gut microbiome [2]; ip): 0.000% | Kopriimonadaceae change in percent relative abundance (gut microbiome [2]; ip): 0.000% | Lachnospiraceae change in percent relative abundance (gut microbiome [2]; ip): −1.425% | Lactobacillaceae change in percent relative abundance (gut microbiome [2]; ip): 1.726% | Leuconostocaceae change in percent relative abundance (gut microbiome [2]; ip): 0.000% | Methylobacteriaceae change in percent relative abundance (gut microbiome [2]; ip): 0.000% | Microbacteriaceae change in percent relative abundance (gut microbiome [2]; ip): 0.000% | Mucoraceae change in percent relative abundance (gut microbiome [2]; ip): 0.000% | Nostocaceae change in percent relative abundance (gut microbiome [2]; ip): 0.000% | Onagraceae change in percent relative abundance (gut microbiome [2]; ip): 0.000% | Oscillatoriales change in percent relative abundance (gut microbiome [2]; ip): 0.000% | Oscillospiraceae change in percent relative abundance (gut microbiome [2]; ip): 0.001% | Paenibacillaceae change in percent relative abundance (gut microbiome [2]; ip): −0.001% | Pasteurellaceae change in percent relative abundance (gut microbiome [2]; ip): 0.000% | Pelobacteraceae change in percent relative abundance (gut microbiome [2]; ip): 0.000% | Peptococcaceae change in percent relative abundance (gut microbiome [2]; ip): −0.325% | Peptoniphilaceae change in percent relative abundance (gut microbiome [2]; ip): 0.000% | Peptostreptococcaceae change in percent relative abundance (gut microbiome [2]; ip): −0.131% | Physalacriaceae change in percent relative abundance (gut microbiome [2]; ip): 0.000% | Poaceae change in percent relative abundance (gut microbiome [2]; ip): 0.024% | Polyangiaceae change in percent relative abundance (gut microbiome [2]; ip): 0.000% | Porphyromonadaceae change in percent relative abundance (gut microbiome [2]; ip): 10.471% | Prevotellaceae change in percent relative abundance (gut microbiome [2]; ip): 0.080% | Pseudomonadaceae change in percent relative abundance (gut microbiome [2]; ip): 0.000% | Rhizobiaceae change in percent relative abundance (gut microbiome [2]; ip): 0.000% | Rhodobacteraceae change in percent relative abundance (gut microbiome [2]; ip): 0.000% | Rikenellaceae change in percent relative abundance (gut microbiome [2]; ip): −3.443% | Ruminococcaceae change in percent relative abundance (gut microbiome [2]; ip): −0.093% | Sphingomonadaceae change in percent relative abundance (gut microbiome [2]; ip): 0.000% | Spirochaetaceae change in percent relative abundance (gut microbiome [2]; ip): −0.032% | Spiroplasmataceae change in percent relative abundance (gut microbiome [2]; ip): −0.059% | Staphylococcaceae change in percent relative abundance (gut microbiome [2]; ip): −0.001% | Streptococcaceae change in percent relative abundance (gut microbiome [2]; ip): −7.086% | Thermoanaerobacteraceae change in percent relative abundance (gut microbiome [2]; ip): −0.008% | Veillonellaceae change in percent relative abundance (gut microbiome [2]; ip): 0.000% | Verrucomicrobiaceae change in percent relative abundance (gut microbiome [2]; ip): 1.296% | Xanthomonadaceae change in percent relative abundance (gut microbiome [2]; ip): 0.001% | Acholeplasmataceae change in percent relative abundance (gut microbiome [2]; po): 0.095% | Candidatus saccharibacteria change in percent relative abundance (gut microbiome [2]; po): −0.022%
